The target in this assay is T1, human kinase Mps-1 (Homo sapiens, UniProt P33981).
T1 construct: N-terminally GST-tagged human full length recombinant Mps-1 kinase; purchased Invitrogen, Karslruhe, Germany PV4071
T1 sequence (P33981 1-857): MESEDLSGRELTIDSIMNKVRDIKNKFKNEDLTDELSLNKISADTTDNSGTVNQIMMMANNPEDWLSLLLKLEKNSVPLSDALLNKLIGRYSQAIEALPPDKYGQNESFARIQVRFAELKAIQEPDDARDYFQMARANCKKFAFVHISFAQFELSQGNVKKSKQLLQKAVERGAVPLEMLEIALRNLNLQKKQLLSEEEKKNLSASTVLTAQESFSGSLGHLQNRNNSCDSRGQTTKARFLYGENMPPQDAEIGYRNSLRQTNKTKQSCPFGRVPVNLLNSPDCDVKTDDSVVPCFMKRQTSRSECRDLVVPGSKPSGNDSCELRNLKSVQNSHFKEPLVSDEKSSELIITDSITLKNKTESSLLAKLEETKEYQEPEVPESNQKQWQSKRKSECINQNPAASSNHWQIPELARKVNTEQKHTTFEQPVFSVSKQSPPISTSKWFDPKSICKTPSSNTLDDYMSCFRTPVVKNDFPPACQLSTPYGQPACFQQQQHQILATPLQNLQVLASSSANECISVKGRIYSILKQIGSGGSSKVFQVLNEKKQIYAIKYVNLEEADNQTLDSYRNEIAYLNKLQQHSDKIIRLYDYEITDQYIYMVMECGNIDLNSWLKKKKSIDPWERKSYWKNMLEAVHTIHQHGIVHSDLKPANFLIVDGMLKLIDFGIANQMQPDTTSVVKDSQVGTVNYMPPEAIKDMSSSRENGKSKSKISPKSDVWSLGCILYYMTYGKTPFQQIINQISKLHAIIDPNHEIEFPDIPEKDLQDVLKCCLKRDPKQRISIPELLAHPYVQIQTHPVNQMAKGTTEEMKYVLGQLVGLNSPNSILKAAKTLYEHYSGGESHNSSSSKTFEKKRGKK
Briefly: Mps-1 kinase assay (TR-FRET). It counts as biochemical. The conditions noted are these: N-terminally GST-tagged human full length recombinant Mps-1; 10 µM ATP; 1 µM peptide substrate; 15 min pre-incubation, 60 min reaction at 22°C; read-out: Mps1 IC50. As to the method:
The human kinase Mps-1 phosphorylates a biotinylated substrate peptide. Detection of the phosphorylated product is achieved by time-resolved fluorescence resonance energy transfer (TR-FRET) from Europium-labelled anti-phospho-Serine/Threonine antibody as donor to streptavidin labelled with cross-linked allophycocyanin (SA-XLent) as acceptor. Compounds are tested for their inhibition of the kinase activity.
N-terminally GST-tagged human full length recombinant Mps-1 kinase (purchased from Invitrogen, Karslruhe, Germany, cat. no PV4071) was used. As substrate for the kinase reaction a biotinylated peptide of the amino-acid sequence PWDPDDADITEILG (C-terminus in amide form, purchased from Biosynthan GmbH, Berlin) was used.
For the assay 50 nL of a 100-fold concentrated solution of the test compound in DMSO was pipetted into a black low volume 384well microtiter plate (Greiner Bio-One, Frickenhausen, Germany), 2 µl of a solution of Mps-1 in assay buffer [0.1 mM sodium-ortho-vanadate, 10 mM MgCl2, 2 mM DTT, 25 mM Hepes pH 7.7, 0.05% BSA, 0.001% Pluronic F-127] were added and the mixture was incubated for 15 min at 22°C to allow pre-binding of the test compounds to Mps-1 before the start of the kinase reaction. […]
The resulting mixture was incubated 1 h at 22°C to allow the binding of the phosphorylated peptide to the anti-phospho(Ser/Thr)-Europium-antibody. Subsequently the amount of phosphorylated substrate was evaluated by measurement of the resonance energy transfer from the Europium-labelled anti-phospho(Ser/Thr) antibody to the Streptavidin-XLent. Therefore, the fluorescence emissions at 620 nm and 665 nm after excitation at 350 nm was measured in a Viewlux TR-FRET reader (PerkinElmer LAS, Rodgau-Jugesheim, Germany). The "blank-corrected normalized ratio" ( a Viewlux specific readout, similar to the traditional ratio of the emissions at 665 nm and at 622 nm, in which blank and Eudonor crosstalk are subtracted from the 665 nm signal before the ratio is calculated) was taken as the measure for the amount of phosphorylated substrate. […]
In the case of `CC(C)CNc1nc(-c2ccccc2)cn2c(-c3ccc(C(=O)NC4CC4)cc3)c(CO)nc12` [Example 1-1, N-cyclopropyl-4-[2-(hydroxymethyl)-8-(isobutylamino)-6-phenylimidazo[1,2-a]pyrazin-3-yl]benzamide], the IC50 – broadly, the concentration at which inhibition is half-maximal – came to 0.178 µM. Take `COC(=O)c1nc2c(NCC(C)C)nc(-c3ccccc3)cn2c1-c1ccc(C(=O)NC2CC2)cc1` [Example 3-1, Methyl 3-[4-(cyclopropylcarbamoyl)phenyl]-8-[(2-methylpropyl)amino]-6-phenylimidazo[1,2-a]pyrazine-2-carboxylate]: the IC50 amounted to 4.25 µM.

In the case of `CC(C)CNc1nc(-c2ccccc2)cn2c(-c3ccc(C(=O)NC4CC4)cc3)c(N)nc12` [Example 4-1, 4-[2-Amino-8-(isobutylamino)-6-phenylimidazo[1,2-a]pyrazin-3-yl]-N-cyclopropylbenzamide], the IC50 was found to be 0.016 µM.
